From patent US20250361239A1, “PROTEIN DEGRADERS AND USES THEREOF” (ZHUHAI YUFAN BIOTECHNOLOGIES CO., LTD., priority 2022, published 2025)

Legend:
Assay type in all cases: cell-based
Jurkat cells = experiment: Jurkat cell killing experiment (CellTiter-Glo cell viability); conditions: Homo sapiens, 48 h incubation, CTG luminescence
Method: (§1) Jurkat cell lines were purchased from ATCC (Cat #ATCC® TIB-152™), RPMI1640 media were purchased from ATCC (Cat #ATCC® 30-2001™), FBS was purchased from Gibco (Cat #10091148), celltiter-glo luminescent cell viability assay was purchased from promega (Cat #G7572), and 96-well plates were purchased from coming (Cat #3610).
(§2) The effect of compounds on the growth of Jurkat cells was determined by measuring cell viability and growth rate. Firstly, cells in the logarithmic growth phase were collected and centrifuged, and the culture supernatant was discarded. The centrifuged cells were resuspended in a fresh complete medium, and the cell density was adjusted to 5×10^4 cells/mL. The resuspended cells were inoculated into two identical opaque 96-well cell culture plates at 100 μL of cell suspension per well, and the cell culture plates were incubated in a cell incubator at 37° C. for 4 h. After 4 h, dilutions (20 μL) of compounds with different concentrations were added. After one of the cell plates was cooled to room temperature, 60 μL of CTG reagent was added, and the luminescence values were read on the instrument as G0. The other one was incubated in a cell incubator for 48 h. After 48 h, 60 μL of CTG reagent was added, and the luminescence values were read on the instrument as G3.
(§3) According to the corresponding proliferation rate and concentration of each gradient concentration well, a gradient curve of cell proliferation was fitted using XLFit software, and the GI50 values of compounds were calculated.

HL60 cells = experiment: HL60 cell killing experiment (CellTiter-Glo cell viability); conditions: Homo sapiens, HL-60, 48 h incubation, CTG luminescence
In short: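 Cells seeded at 5×10^4 cells/mL, dosed after 4 h at 37 °C, then grown for 48 h. CellTiter-Glo luminescence read at the time of dosing (G0) and after 48 h (G3). GI50 fitted from proliferation rate versus concentration.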

Raji cells = experiment: Raji cell killing experiment (CellTiter-Glo cell viability); conditions: Homo sapiens, 48 h incubation, CTG luminescence
Method: as §1, with “Raji” for “Jurkat”, “CCL-86™),” for “TIB-152™),”
as §2, with “Raji” for “Jurkat”
as §3

NCI-H929 cells = experiment: NCI-H929 cell killing experiment (CellTiter-Glo cell viability); conditions: Homo sapiens, 48 h incubation, CTG luminescence
Method: as §1, with “NCI-H929” for “Jurkat”, “CRL-9068™),” for “TIB-152™),”
as §2, with “2. Method The effect” for “The effect”, “growth of NCI-H929 cells was” for “growth of Jurkat cells was”
as §3

GSPT1 = target: T1, GSPT1 (Homo sapiens, UniProt P15170+Q96SW2); experiment: Degradation of GSPT1 by the compounds (HiBiT signal in GSPT1/HEK293 hibit cells); conditions: 6 h incubation, Nano Glo HiBiT Lytic Detection
T1 construct: host or cells: HEK293
In short: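 HEK293 cells with HiBiT-tagged GSPT1 seeded overnight, then treated with serial compound dilutions for 6 h at 37° C. Remaining GSPT1 measured by HiBiT lytic luminescence; DC50 from fitted degradation-concentration curve.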

Hep3B cells = experiment: Hep3B cell killing experiment (CellTiter-Glo cell viability); conditions: Homo sapiens, 48 h incubation, CTG luminescence
Method: as §1, with “Hep3B” for “Jurkat”, “HB-8064™), EMEM” for “TIB-152™), RPMI1640”, “30-2003™),” for “30-2001™),”
The effect of compounds on the growth of Hep3B cells was determined by measuring cell viability and growth rate. Firstly, the cells were digested with pancreatin, and the digestion was then terminated with medium. The cells were centrifuged, and the supernatant was discarded. The centrifuged cells were resuspended in a fresh complete medium, and the cell density was adjusted to 5×10^4 cells/mL. The resuspended cells were inoculated into two identical opaque 96-well cell culture plates at 100 μL of cell suspension per well, and the cell culture plates were incubated in a cell incubator at 37° C. overnight. The next day, dilutions (20 μL) of compounds with different concentrations were added. After one of the cell plates was cooled to room temperature, 60 μL of CTG reagent was added. The luminescence values were read on the instrument as G0. The other one was incubated in a cell incubator for 48 h. After 48 h, 60 μL of CTG reagent was added, and the luminescence values were read on the instrument as G3.
as §3

Toledo cells = experiment: Toledo cell killing experiment (CellTiter-Glo cell viability); conditions: Homo sapiens, 48 h incubation, CTG luminescence
Method: as §1, with “Toledo” for “Jurkat”, “CRL-2631™),” for “TIB-152™),”
as §2, with “Toledo” for “Jurkat”
as §3

SU-DHL-2 cells = experiment: SU-DHL-2 cell killing experiment (CellTiter-Glo cell viability); conditions: Homo sapiens, 48 h incubation, CTG luminescence
Method: as §1, with “SU-DHL-2” for “Jurkat”, “CRL-2956™),” for “TIB-152™),”
as §2, with “SU-DHL-2” for “Jurkat”
as §3

THP-1 cells = experiment: THP-1 cell killing experiment (CellTiter-Glo cell viability); conditions: Homo sapiens, 48 h incubation, CTG luminescence
Method: as §1, with “THP-1” for “Jurkat”, “TIB-202™),” for “TIB-152™),”
as §2, with “THP-1” for “Jurkat”
as §3

T1 sequence (P15170 whole entry): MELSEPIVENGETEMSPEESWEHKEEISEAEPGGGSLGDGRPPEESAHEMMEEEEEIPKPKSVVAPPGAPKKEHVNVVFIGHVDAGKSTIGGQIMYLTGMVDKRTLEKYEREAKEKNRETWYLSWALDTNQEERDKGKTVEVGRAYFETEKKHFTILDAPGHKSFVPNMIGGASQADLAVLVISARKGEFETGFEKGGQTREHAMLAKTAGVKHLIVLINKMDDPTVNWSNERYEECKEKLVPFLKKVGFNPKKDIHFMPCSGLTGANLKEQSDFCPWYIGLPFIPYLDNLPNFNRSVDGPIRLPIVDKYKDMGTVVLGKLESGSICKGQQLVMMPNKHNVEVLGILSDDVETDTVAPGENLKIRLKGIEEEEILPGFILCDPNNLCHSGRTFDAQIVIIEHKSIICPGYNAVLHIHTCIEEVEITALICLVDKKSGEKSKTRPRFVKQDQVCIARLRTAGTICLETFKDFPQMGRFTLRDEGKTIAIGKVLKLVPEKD
T1 sequence (Q96SW2 whole entry): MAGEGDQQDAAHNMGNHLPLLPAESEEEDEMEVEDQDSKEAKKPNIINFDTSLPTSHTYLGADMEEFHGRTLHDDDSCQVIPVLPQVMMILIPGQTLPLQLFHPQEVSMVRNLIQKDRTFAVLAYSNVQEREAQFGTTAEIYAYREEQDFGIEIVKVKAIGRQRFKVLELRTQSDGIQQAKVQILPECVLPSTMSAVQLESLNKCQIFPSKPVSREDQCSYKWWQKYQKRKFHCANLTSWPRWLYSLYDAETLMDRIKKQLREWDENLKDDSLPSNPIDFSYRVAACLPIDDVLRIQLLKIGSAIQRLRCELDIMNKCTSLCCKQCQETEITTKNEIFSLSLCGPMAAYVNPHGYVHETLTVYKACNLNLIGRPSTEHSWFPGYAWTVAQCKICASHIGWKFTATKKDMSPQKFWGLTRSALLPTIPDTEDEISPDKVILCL
T1 sequence (Q16531 whole entry partner): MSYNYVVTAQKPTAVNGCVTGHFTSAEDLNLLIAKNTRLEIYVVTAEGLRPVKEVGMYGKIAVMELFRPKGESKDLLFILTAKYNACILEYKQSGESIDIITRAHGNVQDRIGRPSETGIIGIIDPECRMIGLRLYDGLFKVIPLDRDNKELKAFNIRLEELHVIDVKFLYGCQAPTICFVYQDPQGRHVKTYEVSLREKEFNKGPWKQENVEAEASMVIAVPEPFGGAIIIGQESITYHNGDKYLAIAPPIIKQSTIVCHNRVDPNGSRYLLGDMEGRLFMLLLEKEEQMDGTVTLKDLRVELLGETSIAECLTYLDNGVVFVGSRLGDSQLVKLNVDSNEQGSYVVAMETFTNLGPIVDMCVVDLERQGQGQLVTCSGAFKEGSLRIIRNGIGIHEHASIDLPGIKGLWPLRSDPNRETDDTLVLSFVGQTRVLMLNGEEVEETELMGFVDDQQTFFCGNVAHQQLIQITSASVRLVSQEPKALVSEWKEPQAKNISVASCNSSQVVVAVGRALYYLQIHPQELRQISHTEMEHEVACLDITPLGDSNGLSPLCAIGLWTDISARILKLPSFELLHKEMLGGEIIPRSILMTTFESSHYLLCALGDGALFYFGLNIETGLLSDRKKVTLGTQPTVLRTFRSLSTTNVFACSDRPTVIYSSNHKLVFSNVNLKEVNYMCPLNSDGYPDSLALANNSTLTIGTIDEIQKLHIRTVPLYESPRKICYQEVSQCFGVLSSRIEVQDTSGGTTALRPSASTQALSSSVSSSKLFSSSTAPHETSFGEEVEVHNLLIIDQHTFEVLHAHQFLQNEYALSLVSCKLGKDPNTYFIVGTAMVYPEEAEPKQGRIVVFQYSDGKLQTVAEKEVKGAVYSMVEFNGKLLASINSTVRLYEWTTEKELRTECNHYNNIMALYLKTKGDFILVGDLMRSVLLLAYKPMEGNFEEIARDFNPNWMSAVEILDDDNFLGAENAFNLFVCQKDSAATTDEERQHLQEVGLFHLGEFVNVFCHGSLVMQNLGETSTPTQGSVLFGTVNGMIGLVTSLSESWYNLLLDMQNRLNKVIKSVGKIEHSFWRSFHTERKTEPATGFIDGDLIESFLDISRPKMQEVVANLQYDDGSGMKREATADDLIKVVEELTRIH

| Compound | GI50 (Jurkat cells) | GI50 (HL60 cells) | GI50 (Raji cells) | GI50 (NCI-H929 cells) | DC50 (GSPT1) | GI50 (Hep3B cells) | GI50 (Toledo cells) | GI50 (SU-DHL-2 cells) | GI50 (THP-1 cells) |
| --- | --- | --- | --- | --- | --- | --- | --- | --- | --- |
| O=C1CCC(N2C(=O)c3cccc(NCc4cccc(C(=O)NC5CCC(c6nc7ccccc7o6)CC5)c4)c3C2=O)C(=O)N1 (stereo not shown) [Example 16] | 4.07 nM | < 100 nM | 362 nM | 0.96 nM | < 100 nM | 1.36 nM | – | – | – |
| COc1ccc2c(c1)nc([C@H]1CC[C@H](COc3cc(CNc4cccc5c4C(=O)N(C4CCC(=O)NC4=O)C5=O)ccn3)CC1)n2C (stereo partly shown) [Example 75] | 0.4 nM | < 100 nM | 1.79 nM | – | < 100 nM | – | 0.45 nM | 0.93 nM | – |
| COc1ccc(CNc2cccc3c2C(=O)N(C2CCC(=O)NC2=O)C3=O)cc1C(=O)N[C@H]1CC[C@H](c2nc3ccncc3n2C)CC1 (stereo partly shown) [Example 89] | 0.5 nM | < 100 nM | – | – | < 100 nM | – | – | 1.42 nM | 5.65 nM |
| COc1ccc2c(c1)nc([C@H]1CC[C@H](NC(=O)c3cc(CNc4cccc5c4C(=O)N(C4CCC(=O)NC4=O)C5=O)ccn3)CC1)n2C (stereo partly shown) [Example 90] | – | < 100 nM | 5.88 nM | 0.93 nM | < 100 nM | – | – | – | 4.14 nM |
| COc1ccc2nc([C@H]3CC[C@H](C(=O)Nc4cccc(CNc5cccc6c5C(=O)N(C5CCC(=O)NC5=O)C6=O)c4)CC3)sc2n1 (stereo partly shown) [Example 97] | – | < 100 nM | 3.43 nM | – | < 100 nM | 0.46 nM | – | 1.51 nM | 2.58 nM |
